# Measured values reported in PubChem BioAssay (NCI).
# Several values for one entry are separate records, joined by “and”; a condition that tells them apart may be missing. Equal entries are not always repeated.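 Step 1: Grow cells in 96-well plates. Step 2: Expose to compound for 48 hours at 5 concentrations. Step 3: Interpolate endpoints linearly; if unreached, use highest concentration. GI50 is the concentration that inhibits growth by half. TGI: concentration producing complete growth inhibition.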
# How the values were obtained:
# Test in all cases: growth of human tumour cells (NCI), 48 h
# OVCAR-8 ovarian = test system: OVCAR-8 ovarian
# SF-539 CNS = test system: SF-539 CNS
# TK-10 renal = test system: TK-10 renal
# EKVX NSCLC = test system: EKVX NSCLC
# HS 578T breast = test system: HS 578T breast
# SF-268 CNS = test system: SF-268 CNS
# PC-3 prostate = test system: PC-3 prostate
# SN12C renal = test system: SN12C renal
# OVCAR-3 ovarian = test system: OVCAR-3 ovarian
# BT-549 breast = test system: BT-549 breast
SMILES,TGI (OVCAR-8 ovarian),TGI (SF-539 CNS),TGI (TK-10 renal),TGI (EKVX NSCLC),TGI (HS 578T breast),TGI (SF-268 CNS),TGI (PC-3 prostate),TGI (SN12C renal),TGI (OVCAR-3 ovarian),GI50 (OVCAR-8 ovarian),GI50 (SF-539 CNS),GI50 (TK-10 renal),GI50 (EKVX NSCLC),GI50 (HS 578T breast),GI50 (SF-268 CNS),GI50 (SN12C renal),GI50 (OVCAR-3 ovarian),TGI (BT-549 breast),GI50 (BT-549 breast),GI50 (PC-3 prostate)
COC(=O)c1c[nH]c(=O)[nH]c1=O,> 100 µM,> 100 µM,> 100 µM,> 100 µM,> 100 µM,> 100 µM,> 100 µM,> 100 µM,> 100 µM,,,,,,,,,,,
CCCCCCCCCCCC(=O)OCC1OC(n2cc(F)c(=O)[nH]c2=O)C(NC(=O)OCc2ccccc2)C(O)C1O (stereo unspecified),43.7 µM,49.4 µM,> 100 µM,79.9 µM,,> 100 µM,,34.7 µM,68.4 µM,,,,,,,,,,,
S=c1nc(-c2ccccc2)oc(=NC2CCCCC2)n1C1CCCCC1,18.5 µM,20.4 µM,8.57 µM,12 µM,14.5 µM,17.6 µM,,18.7 µM,11.3 µM,3.22 µM,5.73 µM,4.31 µM,2.14 µM,3.3 µM,4.72 µM,3.94 µM,3.54 µM,,,
CCC1C(C)c2c([nH]c3ccccc23)C2C(=O)N(c3ccccc3)C(=O)C21 (stereo unspecified),28.7 µM,34.5 µM,89.2 µM,38.3 µM,,62.5 µM,,26.3 µM,27.1 µM,,,,,,,,,,,
COc1ccc(C2OC(=O)c3c2ccc2ccccc32)c(C)c1 (stereo unspecified),> 100 µM,,17.7 µM,> 100 µM,> 100 µM,,97.1 µM,88.2 µM,,,,,,,,,,69.4 µM,,
C/C1=C\[C@H](C)C[C@H](C)OC(=O)C[C@H](c2ccc(O)cc2)NC(=O)[C@@H](Cc2c(Br)[nH]c3ccccc23)N(C)C(=O)[C@H](C)NC(=O)[C@@H](C)C1,0.568 µM,0.622 µM and 0.0655 µM,0.428 µM and 0.26 µM,0.746 µM and 1.83 µM,0.606 µM and 0.134 µM,0.443 µM and 0.166 µM,,> 45.9 µM,0.323 µM and 0.255 µM,0.0516 µM,0.238 µM,0.0982 µM,0.132 µM,0.0451 µM,0.0352 µM,0.0738 µM,0.0393 µM,0.0669 µM,,
CCOC(=O)c1sc(-c2ccc(OS(=O)(=O)c3cccs3)c(C=O)c2)nc1C,,3.42 µM,4.33 µM,5.4 µM,5.3 µM,4.42 µM,4.81 µM,5.75 µM,,,1.82 µM,1.27 µM,1.88 µM,2.1 µM,1.91 µM,1.98 µM,,3.19 µM,1.68 µM,1.26 µM
O=C(c1cc(O)ccc1O)c1ccccc1C(Cl)(Cl)Cl,> 100 µM,> 100 µM,> 100 µM,> 100 µM,,> 100 µM,,> 100 µM,> 100 µM,,,,,,,,,,,
CC(=O)NS(=O)(=O)c1ccc(NC(=O)COC(=O)c2cccc3c(=O)c4ccccc4[nH]c23)cc1,> 100 µM,> 100 µM,> 100 µM,> 100 µM,,,,> 100 µM,> 100 µM,,,,,,,,,,,
CC1=NNC(=NCCN(C)C)C/C1=C/c1ccccc1Cl,> 100 µM,> 100 µM,> 100 µM,> 100 µM,,> 100 µM,,> 100 µM,> 100 µM,,,,,,,,,,,
Cc1ccc(S(=O)(=O)N(/N=C(\N)Oc2ccc(Cl)cc2)C(=N)Oc2ccc(Cl)cc2)cc1,> 100 µM,> 100 µM,> 100 µM,> 100 µM,,> 100 µM,,> 100 µM,> 100 µM,,,,,,,,,,,
